# Assay results as given in patent US7605175B2, “Inhibitors of cyclin-dependent kinases, compositions and uses related thereto” (GPC Biotech AG, priority 2001, dated 2009).
# Assays:
# Settings in all cases: Table 6
# Cdk2/cyclin E = target: T1, Cdk2/cyclin E (Homo sapiens, UniProt P24941); test: Biochemical kinase assay Cdk2/cyclin E
# T1 construct: made in house; host or cells: Sf9 insect cells
# From the text: (§1) Enzymes: Cdc2/cyclin B was obtained from commercial sources. Cdk2/his-cyclin Eshort was expressed in Sf9 cells. Cdk2/cyclin A, cdk4/cyclin D1, and cdk6/cyclin D2 were expressed in Sf9 cells. Protein kinase A (catalytic subunit, from bovine heart) and protein kinase C (mixed isozymes from rat brain) were obtained from commercial sources.
# (§2) Substrates: Histone H1 was from commercial sources. GST-Rb is glutathione-S-trans-ferase fused to the N-terminal of residues 379-928 of the Rb protein.
# (§3) Cdk2/cyclin E, Cdk2/cyclin A, Cdk4/cyclin D1, and Cdk6/cyclin D2 activity was determined using a glutathione-sepharose capture assay. The enzymes were expressed in Sf9 insect cells as heterodimers, and the substrate (GST-Rb) was glutathione-S-transferase fused to residues 379 to 928 of Rb retinoblastoma protein, expressed in E. coli. The assay solution contained 50 mM Tris.HCl, 10 mM MgCl2, 1 mM dithiothreitol, 50 μM adenosine triphosphate, 2 μCi [γ-^33P]adenosine triphosphate, 10% dimethylsulfoxide (from compounds), pH 7.5, 40 μg GST-Rb, and enzyme in a 100 μL volume. Compounds were added at various concentrations between 1 nM and 10 μM. The reaction was allowed to proceed for 15 min at 30° C. and was stopped by the addition of 70 μL of stop solution (237 mM disodium ethylene-diamine tetraacetate, 105 mM adenosine triphosphate, pH 8.0). The GST-Rb was captured by binding to glutathione-sepharose bead (Amersham) for 110 min, and the suspension was filtered through a glass fiber filter. After washing the retained beads five time with phosphate-buffered saline containing 0.3% (w/v) Tween-20, the amount of ^33P incorporated was determined by scintillation counting after adding 100 μL scintillant. Relative activity was determined by dividing the amount of radioactivity incorporated in the presence of compound by the amount of radioactivity incorporated in a control experiment containing DMSO alone but no compound. The background radioactivity, determined in an experiment containing 50 mM disodium ethylenediamine tetraacetate in place of compound, was subtracted from all results before calculations.
# Cdk4/cyclin D1 = target: T2, Cdk4/cyclin D1 (Homo sapiens, UniProt P11802); test: Biochemical kinase assay Cdk4/cyclin D1
# T2 construct: made in house; host or cells: Sf9 insect cells
# From the text: as §1, §2, §3
# Cdc2/cyclin B = target: T3, Cdc2/cyclin B (Homo sapiens, UniProt P06493); test: Biochemical kinase assay Cdc2/cyclin B
# T3 construct: purchased
# From the text: as §1, §2
# Assays: Cdc2/cyclinB activity was determined by measuring incorporation of radio-activity from adenosine [γ-^32P]triphosphate into Histone H1 using a TCA precipitation assay. Cdc2/cyclin B kinase and Histone H1 were obtained from commercial sources. The final assay solution contained 50 mM Tris.HCl, 10 mM MgCl2, 1 mM dithiothreitol, 50 μM adenosine triphosphate, 2 μCi ^32P, 10% dimethylsulfoxide (from compounds), pH 7.5, 20 μg Histone H1, 6 U enzyme in a 50 μL volume. Compounds were added at various concentrations between 1 nM and 10 μM. The reaction was started with the addition of enzyme, allowed to proceed for 20 min at 30° C., and stopped by the addition of 20 μL of stop solution (237 mM disodium ethylenediamine tetraacetate, 105 mM adenosine triphosphate, pH 8.0). The protein was precipitated by the addition of 35 μL 70% (w/v) trichloroacetic acid, and the precipitate was captured on a 96-well glass fiber filter plate (Millipore, Inc.), which had been wet with 25% (w/v) trichloroacetic acid. The filter was washed ten times with 25% (w/v) trichloroacetic acid, and the amount of incorporated ^32P was determined by scintillation counting after adding 100 μL scintillant (Microscint 20, Packard Instruments). Relative activity was determined by dividing the amount of radioactivity incorporated in the presence of compound by the amount of radioactivity incorporated in a control experiment containing DMSO alone but no compound. The background radioactivity, determined in an experiment containing 50 mM EDTA in place of compound, was subtracted from all results before calculations.
# T2 sequence (P11802 whole entry, species assumed): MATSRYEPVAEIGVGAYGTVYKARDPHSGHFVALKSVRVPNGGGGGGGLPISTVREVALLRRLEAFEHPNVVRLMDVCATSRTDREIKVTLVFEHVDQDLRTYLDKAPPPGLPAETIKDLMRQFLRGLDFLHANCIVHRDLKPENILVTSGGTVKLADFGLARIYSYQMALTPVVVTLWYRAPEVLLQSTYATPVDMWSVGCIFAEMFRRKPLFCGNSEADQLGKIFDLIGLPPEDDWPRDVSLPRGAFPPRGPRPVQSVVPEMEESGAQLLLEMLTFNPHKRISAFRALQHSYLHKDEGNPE
# T2 sequence (P24385 whole entry partner, species assumed): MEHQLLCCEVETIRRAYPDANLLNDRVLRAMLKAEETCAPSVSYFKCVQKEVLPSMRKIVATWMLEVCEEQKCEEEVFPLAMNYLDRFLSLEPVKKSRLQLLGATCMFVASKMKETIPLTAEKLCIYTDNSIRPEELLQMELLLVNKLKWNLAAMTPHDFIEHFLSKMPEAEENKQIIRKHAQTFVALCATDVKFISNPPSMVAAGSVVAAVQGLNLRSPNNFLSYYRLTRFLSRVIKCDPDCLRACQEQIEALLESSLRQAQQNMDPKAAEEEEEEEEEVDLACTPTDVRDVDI
# T3 sequence (P06493 whole entry, species assumed): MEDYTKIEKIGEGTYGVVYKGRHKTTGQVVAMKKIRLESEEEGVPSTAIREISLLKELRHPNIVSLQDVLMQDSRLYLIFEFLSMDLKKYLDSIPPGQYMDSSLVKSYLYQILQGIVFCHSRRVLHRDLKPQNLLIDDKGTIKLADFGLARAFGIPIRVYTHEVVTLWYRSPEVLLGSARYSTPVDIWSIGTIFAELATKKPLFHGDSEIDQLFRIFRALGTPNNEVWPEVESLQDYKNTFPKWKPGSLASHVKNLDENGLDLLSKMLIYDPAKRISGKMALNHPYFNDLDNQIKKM
# T3 sequence (P14635 whole entry partner, species assumed): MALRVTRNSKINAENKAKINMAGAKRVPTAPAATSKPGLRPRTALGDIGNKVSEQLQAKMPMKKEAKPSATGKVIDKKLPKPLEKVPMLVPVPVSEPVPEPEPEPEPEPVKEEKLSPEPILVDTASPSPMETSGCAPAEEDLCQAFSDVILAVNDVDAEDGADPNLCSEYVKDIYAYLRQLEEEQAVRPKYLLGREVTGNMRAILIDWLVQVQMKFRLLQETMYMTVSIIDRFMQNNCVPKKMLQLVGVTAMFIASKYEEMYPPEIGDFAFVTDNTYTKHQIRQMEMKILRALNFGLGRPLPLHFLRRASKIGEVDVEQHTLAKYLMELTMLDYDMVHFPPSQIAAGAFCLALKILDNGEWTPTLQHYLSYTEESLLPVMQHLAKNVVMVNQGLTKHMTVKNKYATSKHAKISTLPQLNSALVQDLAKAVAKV
IC50 (Cdk2/cyclin E) [µM],IC50 (Cdk4/cyclin D1) [µM],IC50 (Cdc2/cyclin B) [µM],SMILES
< 0.1,< 0.1,< 0.1,CN1CCN(NC(=O)Nc2cccc3c2C(=O)c2c(-c4ccc(OCCN5CCCC5)cc4F)n[nH]c2-3)CC1 [Compound A12]
< 0.1,< 0.1,< 0.01,Cc1cc(OCCN2CCCN(C)CC2)ccc1-c1[nH]nc2c1C(=O)c1c(NC(=O)NN3CCN(C)CC3)cccc1-2 [Compound A9]
< 0.1,< 0.1,< 0.1,Cc1cc(-c2[nH]nc3c2C(=O)c2c(NC(=O)NN4CCOCC4)cccc2-3)ccc1OCCN1CCCC1 [Compound A25]
< 0.01,< 0.1,< 0.1,CC(C)N1CCN(CCOc2ccc(-c3n[nH]c4c3C(=O)c3c(NC(=O)NN5CCOCC5)cccc3-4)cc2F)CC1 [Compound A22]
< 0.1,< 0.1,< 0.01,CN1CCN(NC(=O)Nc2cccc3c2C(=O)c2c-3n[nH]c2-c2ccc(O)cc2)CC1 [Compound A15]
< 0.01,< 0.1,< 0.01,Cc1cc(-c2[nH]nc3c2C(=O)c2c(NC(=O)NN4CCOCC4)cccc2-3)ccc1OCCN1CCN(C(C)C)CC1 [Compound A24]
< 0.01,< 0.1,< 0.1,Cc1cc(OCCN2CCCC2)ccc1-c1[nH]nc2c1C(=O)c1c(NC(=O)NN3CCOCC3)cccc1-2 [Compound A29]
< 0.1,< 0.1,< 0.1,Cc1cc(-c2[nH]nc3c2C(=O)c2c(NC(=O)NN4CCN(C)CC4)cccc2-3)ccc1OCCN1CCN(C(C)C)CC1 [Compound A18]
< 0.01,< 1,< 0.1,Cc1cc(OCCCN2CCN(C(C)C)CC2)ccc1-c1[nH]nc2c1C(=O)c1c(NC(=O)NN3CCOCC3)cccc1-2 [Compound A21]
< 0.1,< 1,< 0.1,O=C(Nc1cccc2c1C(=O)c1c-2n[nH]c1-c1ccc(S(=O)(=O)N2CCNCC2)cc1)NN1CCOCC1 [Compound A56]
< 0.1,< 0.1,< 0.1,Cc1cc(OCCn2cccn2)ccc1-c1[nH]nc2c1C(=O)c1c(NC(=O)NN3CCN(C)CC3)cccc1-2 [Compound A11]
< 0.1,< 0.1,< 0.1,O=C(Nc1cccc2c1C(=O)c1c-2n[nH]c1-c1ccc(OCCN2CCOCC2)cc1)NN1CCOCC1 [Compound A3]
< 0.1,< 0.1,< 0.1,COc1cc(-c2[nH]nc3c2C(=O)c2c(NC(=O)NN4CCOCC4)cccc2-3)ccc1OCCN1CCCC1 [Compound A31]
< 0.1,< 0.1,< 0.1,CN1CCN(NC(=O)Nc2cccc3c2C(=O)c2c(-c4ccc(OCCN5CCCC5)c(F)c4)n[nH]c2-3)CC1 [Compound A14]
< 0.1,< 0.1,< 0.1,Cc1cc(OCCN2CCOCC2)ccc1-c1[nH]nc2c1C(=O)c1c(NC(=O)NN3CCN(C)CC3)cccc1-2 [Compound A7]
< 0.1,< 1,< 0.1,Cc1cc(OCCN2CCN(C(C)C)CC2)ccc1-c1[nH]nc2c1C(=O)c1c(NC(=O)NN3CCN(C)CC3)cccc1-2 [Compound A19]
< 0.1,< 0.1,< 0.1,O=C(Nc1cccc2c1C(=O)c1c-2n[nH]c1-c1ccc(OCC(=O)N2CCOCC2)cc1)NN1CCOCC1 [Compound A36]

IC50 (Cdk2/cyclin E) [µM],IC50 (Cdk4/cyclin D1) [µM],IC50 (Cdc2/cyclin B) [µM],SMILES
< 0.1,< 0.1,< 0.01,CCOC(=O)COc1ccc(-c2[nH]nc3c2C(=O)c2c(NC(=O)NN4CCOCC4)cccc2-3)cc1 [Compound A65]
< 0.1,< 0.1,< 0.1,Cc1cc(OCCN2CCCCC2)ccc1-c1[nH]nc2c1C(=O)c1c(NC(=O)NN3CCN(C)CC3)cccc1-2 [Compound A8]
< 0.1,< 1,< 0.1,CC(C)N1CCN(CCOc2ccc(-c3n[nH]c4c3C(=O)c3c(NC(=O)NN5CCOCC5)cccc3-4)c(F)c2)CC1 [Compound A16]
< 0.1,< 0.1,< 0.01,O=C(Nc1cccc2c1C(=O)c1c(-c3ccc(OCCN4CCOCC4)c(F)c3)n[nH]c1-2)NN1CCOCC1 [Compound A27]
< 0.1,< 1,< 0.01,O=C(Nc1cccc2c1C(=O)c1c-2n[nH]c1-c1ccc(O)c(CN2CCOCC2)c1)NN1CCOCC1 [Compound A10]
< 0.1,< 0.1,< 0.01,Cc1noc(COc2ccc(-c3[nH]nc4c3C(=O)c3c(NC(=O)NN5CCN(C)CC5)cccc3-4)cc2)n1 [Compound A45]
< 0.01,< 0.1,< 0.1,CC(C)N1CCN(NC(=O)Nc2cccc3c2C(=O)c2c-3n[nH]c2-c2ccc(OCCN3CCCC3)cc2)CC1 [Compound A23]
< 0.01,< 0.1,< 0.01,CC(C)N1CCN(CCCOc2ccc(-c3[nH]nc4c3C(=O)c3c(NC(=O)NN5CCOCC5)cccc3-4)cc2)CC1 [Compound A20]
< 0.1,< 0.1,< 1,CN(C)C(=O)CN1CCN(NC(=O)Nc2cccc3c2C(=O)c2c-3n[nH]c2-c2ccc(OCCN3CCCC3)cc2)CC1 [Compound A41]
< 0.1,< 0.1,< 0.01,Cc1noc(COc2ccc(-c3[nH]nc4c3C(=O)c3c(NC(=O)NN5CCOCC5)cccc3-4)cc2)n1 [Compound A35]
< 0.1,< 0.1,< 0.01,CN1CCN(NC(=O)Nc2cccc3c2C(=O)c2c-3n[nH]c2-c2ccc(OCCn3cccn3)cc2)CC1 [Compound A17]
< 0.1,< 1,< 0.01,O=C(Nc1cccc2c1C(=O)c1c-2n[nH]c1-c1ccc(OCC(=O)N2CCCC2)cc1)NN1CCOCC1 [Compound A46]
< 0.01,< 0.1,< 0.1,O=C(O)COc1ccc(-c2n[nH]c3c2C(=O)c2c(NC(=O)NN4CCOCC4)cccc2-3)cc1 [Compound A68]
< 0.1,< 1,< 0.1,O=C(Nc1cccc2c1C(=O)c1c(-c3ccc(OCCN4CCOCC4)cc3Cl)n[nH]c1-2)NN1CCOCC1 [Compound A28]
< 0.1,< 0.1,< 0.1,CN1CCN(CCOc2ccc(-c3n[nH]c4c3C(=O)c3c(NC(=O)NN5CCN(C)CC5)cccc3-4)c(F)c2)CC1 [Compound A13]
< 0.1,< 0.1,< 0.01,CN1CCN(NC(=O)Nc2cccc3c2C(=O)c2c-3n[nH]c2-c2ccc(OCC(=O)N3CCCC3)cc2)CC1 [Compound A44]

SMILES,IC50 (Cdk2/cyclin E) [µM],IC50 (Cdk4/cyclin D1) [µM],IC50 (Cdc2/cyclin B) [µM]
CC(C)c1nn(-c2c(Cl)cc(Cl)cc2Cl)c2nc(Cc3ccc(NS(=O)(=O)CCCN4CCN(C(C)C)CC4)cc3)[nH]c(=O)c12 [Compound A39],< 0.1,< 1,< 1
Cc1nc(Cc2nc3c(c(C(C)C)nn3-c3c(Cl)cccc3Cl)c(=O)[nH]2)cs1 [Compound A58],< 0.01,< 10,< 10
CC(C)c1nn(-c2c(Cl)cc(Cl)cc2Cl)c2nc(Cc3ccc(NS(=O)(=O)CCCN4CCCC4)cc3)[nH]c(=O)c12 [Compound A38],< 0.1,< 1,< 1
CC(C)c1nn(-c2c(Cl)cccc2Cl)c2nc(Cc3ccc(OCCO)cc3)[nH]c(=O)c12 [Compound A59],< 0.1,< 1,< 0.1
